# Measurements reported in US7179825B2, “Retinoic acid mimetic anilides” (Janssen Pharmaceutica N.V., priority 1997, dated 2007).
# Test system: Ovariectomized rats
# Experiment: Vaginal keratinization test on ovariectomized rats (Example C.2)
# Assay type: in vivo
# Settings: Rattus norvegicus, po, estradiol undecylate induced keratinization, per os once daily on days 1-3, active dose = 50% of rats show complete suppression, read-out: LAD (lowest active dose)
# From the text: The property to delay the metabolism of retinoic acid can be evidenced in various in vitro and in vivo experiments. A particular in vitro procedure is described in example C.1 and tests the inhibitory activity of the compounds of formula (I) on the metabolism of retinoic acid in human breast cancer cells. The compounds of the present invention were also effective in suppressing induced vaginal keratinization effects in ovariectomized rats as is described in example C.2.
# “Vaginal Keratinization Test on Ovariectomized Rats”
# Ovariectomized rats were injected subcutaneously with a sesame oil solution containing 100 μg of estradiol undecylate in a volume of 0.1 ml per 100 g body weight and control animals were injected with sesame oil. On day one, two and three, test animals were treated once daily with a per os dose of the test compound and control animals with the drug vehicle (PEG 200). One day after the last treatment, the animals were sacrificed and their vaginas were processed for histological evaluation according to the method described in J. Pharmacol. Exp. Ther. 261(2), 773–779 (1992). A dose at which 50% of the tested rats show complete suppression of the estradiol undecylate induced keratinization effects is defined as an active dose. Table 23 lists the lowest active dose (LAD in mg/kg) of the compounds of formula (I) which were tested.
row,Compound,minimal effective dose [mg/kg]
1,"CCC(CC)C(c1ccc(NC(=O)CN2CCN(C)CC2)cc1)n1cncn1 (racemic) [Compound 15, (±)-N-[4-[2-ethyl-1-(1H-1,2,4-triazol-1-yl)butyl]phenyl]-4-methyl-1-piperazineacetamide]",> 2.5
2,"CCC(CC)C(c1ccc(NC(=O)C2CCNCC2)cc1)n1ccnc1.Cl (racemic) [Compound 57, (±)-N-[4-[2-ethyl-1-(1H-imidazol-1-yl)butyl]-phenyl]4-piperidinecarboxamide monohydrochloride]",> 5
3,"CC(=O)Nc1ccc(C(C(C)C)n2ccnc2)cc1 (racemic) [Compound 521, (±)-N-[4-[1-(1H-imidazol-1-yl)-2-methylpropyl]phenyl]acetamide]",10
4,"CCC(CC)C(c1ccc(NC(=S)Nc2nc3ccccc3s2)cc1)n1ccnc1 (racemic) [Compound 705, (±)-N-(2-benzothiazolyl)-N′-[4-[1-(1H-imidazol-1-yl)-2-ethylbutyl]phenyl]-thiourea]",> 5

# Same assay, conditions: estradiol undecylate induced keratinization, per os once daily on days 1-3, active dose = 50% of rats show complete suppression
row,Compound,LAD (lowest active dose) [mg/kg]
1,CC(C(c1ccc(NC(=O)CCN2CCN(C)CC2)cc1)n1ccnc1)N(C)C (mixture of isomers) [Compound 354],>5.00
2,CCCCN(C)C(C)C(c1ccc(NC(C)=O)cc1)n1ccnc1 (mixture of isomers) [Compound 562],5.00
3,CCN(C)C(C)C(c1ccc(NC(C)=O)cc1)n1ccnc1 (mixture of isomers) [Compound 566],5.00
4,CCCN(C)C(C)C(c1ccc(NC(C)=O)cc1)n1ccnc1 (mixture of isomers) [Compound 570],>5.00
5,CC(=O)Nc1ccc(C(C(C)N(Cc2ccccc2)Cc2ccccc2)n2ccnc2)cc1 (mixture of isomers) [Compound 572],>5.00
6,CCC(CC)C(c1ccc(NC(=O)CN2CCCCC2)cc1)n1ccnc1 (racemic) [Compound 43],2.50
7,CCC(CC)C(c1ccc(NC(=O)CN2CCN(C)CC2)cc1)n1ccnc1 (racemic) [Compound 44],2.50
8,CCC(CC)C(c1ccc(NC(=O)C2CCN(C)CC2)cc1)n1ccnc1 (racemic) [Compound 59],>2.50
9,CCC(CC)C(c1ccc(NC(=O)Cc2ccc(OC)c(Cl)c2)cc1)n1cncn1 (racemic) [Compound 74],2.50
10,CCC(CC)C(c1ccc(NC(=O)Cc2c(OC)cccc2OC)cc1)n1ccnc1 (racemic) [Compound 114],2.50
11,CC(C)C(c1ccc(NC(=O)c2cc3ccccc3[nH]2)cc1)n1ccnc1 (racemic) [Compound 178],>10.00
12,CN(C)CC(c1ccc(NC(=O)Cc2ccc(Cl)cc2)cc1)n1ccnc1 (racemic) [Compound 375],>5.00
13,"COc1ccc(CC(=O)Nc2ccc(C(C(C)CO)n3ccnc3)cc2)cc1OC (racemic) [Compound 386, (±)-(A)-3,4-dimethoxy-N-[4-[1-(1H-imidazol-1-yl)-2-(hydroxymethyl)propyl]phenyl]benzeneacetamide]",>2.50
14,"COc1ccc(CC(=O)Nc2ccc(C(C(C)CO)n3ccnc3)cc2)cc1OC (racemic) [Compound 394, (±)-(B)-3,4-dimethoxy-N-[4-[1-(1H-imidazol-1-yl)-2-(hydroxymethyl)propyl]phenyl]-benzeneacetamide]",>2.50
15,COCC(c1ccc(NC(=O)Cc2ccc(OC)c(OC)c2)cc1)n1ccnc1 (racemic) [Compound 397],>2.50
16,"CNC(C)C(c1ccc(NC(=O)Cc2ccc(OC)c(OC)c2)cc1)n1ccnc1 (racemic) [Compound 400, (±)-(A)-3,4-dimethoxy-N-[4-[1-(1H-imidazol-1-yl)-2-(methylamino)propyl]phenyl]benzeneacetamide]",>2.50
17,"COc1ccc(CC(=O)Nc2ccc(C(C(C)O)n3ccnc3)cc2)cc1OC.O (racemic) [Compound 402, (±)-(B)-3,4-dimethoxy-N-[4-[2-hydroxy-1-(1H-imidazol-1-yl)propyl]phenyl]benzeneacetamide monohydrate]",>5.00
18,Cc1ccc(CC(=O)Nc2ccc(C(CN(C)C)n3ccnc3)cc2)cc1C (racemic) [Compound 433],>2.50
19,COc1ccc(C(=O)Nc2ccc(C(CN(C)C)n3ccnc3)cc2)cc1OC (racemic) [Compound 434],>2.50
20,CN(C)CC(c1ccc(NC(=O)N2CCN(C)CC2)cc1)n1ccnc1 (racemic) [Compound 436],>5.00
21,CC(=O)Nc1ccc(C(C=CC(C)C)n2ccnc2)cc1 (racemic) [Compound 532],>10.00
22,"CC(=O)Nc1ccc(C(C(C)N(C)C)n2cncn2)cc1 (racemic) [Compound 631, (±)-(B)-N-[4-[2-(dimethylamino)-1-(1H-1,2,4-triazol-1-yl)propyl]phenyl]acetamide]",>2.50
23,CCCC(C)C(c1ccc(NC(=O)Cc2ccc(Cl)cc2)cc1)n1cncn1 (racemic) [Compound 638],>2.50

row,Compound,LAD (lowest active dose) [mg/kg]
1,CCC(CC)C(c1ccc(NC(=S)Nc2nc3ccccc3s2)cc1)n1cncn1 (racemic) [Compound 706],5.00
2,O=C(Nc1ccc(C(c2cccc(C(F)(F)F)c2)n2ccnc2)cc1)Nc1ccccc1F (racemic) [Compound 714],2.50
3,COc1ccc(NC(=O)Nc2ccc(C(c3cccc(C(F)(F)F)c3)n3ccnc3)cc2)cc1 (racemic) [Compound 716],>2.50
4,COc1ccc(NC(=O)Nc2ccc(C(CN(C)C)n3ccnc3)cc2)cc1OC (racemic) [Compound 721],>2.50
5,CCCC(c1ccc(NC(=O)Cc2ccc(Cl)cc2)cc1)(C(CC)CC)n1ccnc1 (racemic) [Compound 766],>2.50
6,CCC(CC)C(CC)(c1ccc(NC(=O)Cc2ccc(Cl)cc2)cc1)n1ccnc1 (racemic) [Compound 768],>2.50
7,"CCC(CC)C(c1ccc(NC(=O)C(O)c2ccc(Cl)cc2)cc1)n1cncn1 (single isomer, unassigned) [Compound 20]",2.50
8,"CCOc1ccc(CCC(=O)Nc2ccc(C(C(CC)CC)n3ccnc3)cc2)cc1 (single isomer, unassigned) [Compound 62]",>5.00
9,"COc1ccc(CC(=O)Nc2ccc(C(C(C)N(C)C)n3cncn3)cc2)cc1OC (single isomer, unassigned) [Compound 278]",2.50
10,"COc1ccc(CC(=O)Nc2ccc(C(C(C)N(C)C)n3cncn3)cc2)cc1Cl (single isomer, unassigned) [Compound 279]",2.50
11,"Cc1ccc(CC(=O)Nc2ccc(C(C(C)N(C)C)n3cncn3)cc2)cc1C (single isomer, unassigned) [Compound 280]",>2.50
12,"COc1ccc(CC(=O)Nc2ccc(C(C(C)N(C)C)n3cncn3)cc2)cc1C (single isomer, unassigned) [Compound 281]",>2.50
13,"CC(C(c1ccc(NC(=O)Cc2ccc(Cl)cc2)cc1)n1cncn1)N(C)C (single isomer, unassigned) [Compound 283]",2.50
14,"CC(C(c1ccc(NC(=O)Cc2ccc(O)c(Cl)c2)cc1)n1cncn1)N(C)C (single isomer, unassigned) [Compound 284]",2.50
15,"CCOc1ccc(CC(=O)Nc2ccc(C(C(C)N(C)C)n3cncn3)cc2)cc1OCC (single isomer, unassigned) [Compound 285]",>2.50
16,"COc1ccc(CC(=O)Nc2ccc(C(C(C)N(C)C)n3cncn3)cc2)cc1C (single isomer, unassigned) [Compound 286]",>2.50
17,"COc1ccc(CC(=O)Nc2ccc(C(C(C)N(C)C)n3cncn3)cc2)cc1OC (single isomer, unassigned) [Compound 287]",>2.50
18,"COc1cc(CC(=O)Nc2ccc(C(C(C)N(C)C)n3cncn3)cc2)ccc1C (single isomer, unassigned) [Compound 294]",>2.50
19,"COc1cc(CC(=O)Nc2ccc(C(C(C)N(C)C)n3cncn3)cc2)ccc1C (single isomer, unassigned) [Compound 295]",>2.50
20,"CCOc1ccc(CC(=O)Nc2ccc(C(C(C)N(C)C)n3ccnc3)cc2)cc1OCC (single isomer, unassigned) [Compound 300]",>2.50
21,"COc1cc(CC(=O)Nc2ccc(C(C(C)N(C)C)n3ccnc3)cc2)cc(OC)c1OC (single isomer, unassigned) [Compound 302]",>2.50
22,"COc1ccc(CC(=O)Nc2ccc(C(C(C)N(C)C)n3ccnc3)cc2)cc1Cl (single isomer, unassigned) [Compound 304]",>2.50
23,"Cc1cc(CC(=O)Nc2ccc(C(C(C)N(C)C)n3ccnc3)cc2)cc(C)c1C (single isomer, unassigned) [Compound 308]",>2.50
